# Assay results from the Deep4Chem optical property database.
# Test: solvent given as SMILES
structure (smiles),measurement,setting,value
O=[N+]([O-])c1ccc([N+]2=Cc3ccc4c5c(ccc4c3O[B-]2(c2ccccc2)c2ccccc2)C=[N+](c2ccc([N+](=O)[O-])cc2)[B-](c2ccccc2)(c2ccccc2)O5)cc1,emission maximum,in Cc1ccccc1,643 nm
same,emission maximum,in ClCCl,642 nm
CCCCN(CCCC)c1ccc2c#cc3cc4c#cc5ccc(C(F)(F)F)cc5c#cc#cc5cc(N(CCCC)CCCC)ccc5c#cc4cc3c#cc3ccc(C(F)(F)F)cc3c#cc#cc2c1,emission maximum,in ClCCl,555 nm
same,emission maximum,in c1ccccc1,521 nm
CC1=CC(C)=[N+]2C1=C(c1ccccc1)c1c(C)cc(/C=C/c3ccc(N(C)C)cc3)n1[B-]2(F)F,emission maximum,in CCOCC,638 nm
c1ccc(N(c2ccccc2)c2ccc(-c3ncc(-c4ccncc4)s3)cc2)cc1,emission maximum,in CO,534 nm
Cc1cc2sccc2c2[nH]c3ccccc3c12,emission maximum,in ClCCl,346 nm
CC(=O)c1cc(=O)n(C)c2cc(-c3ccc(N(C)C)cc3)sc12,emission maximum,in CC#N,504 nm
same,emission maximum,in ClCCl,610 nm
COc1ccc2c(c1)-c1cc(OC)ccc1C2=O,emission maximum,in C1CCCCC1,490 nm
same,emission maximum,in CC#N,514 nm
same,emission maximum,in CCO,552 nm
c12c3c4c5c1c1c6c7c2c2c8c3c3c9c4c4c%10c5c5c1c1c6c6c%11c%12c%13c%14c%15c%16c%17c%14c%14c%18c%13c%11c1c1c5c%10c5c(c%14c%10c%17c%11c%13c%16c%14c%16c%15c%12c%12c%16c(c2c7c%126)c2c8c3c(c%13c%142)c2c9c4c5c%10c%112)c%181,emission maximum,in CC1CCCCC1,650 nm
c1ccc(C2=C(c3ccccc3)c3cccc4c3c(cc3nc5cc(-c6ccccc6)c(-c6ccccc6)cc5nc34)O2)cc1,emission maximum,in ClCCl,559 nm
CC(C)c1cccc(C(C)C)c1N1C(=O)c2cccc3c(Oc4ccccc4)ccc(c23)C1=O,emission maximum,in ClCCl,425 nm
Cc1ccc(-c2c3nc(c(-c4ccc(C)cc4)c4ccc([nH]4)c(-c4ccc(OC(=O)C(C)c5ccc(-c6ccccc6)c(F)c5)cc4)c4nc(c(-c5ccc(C)cc5)c5ccc2[nH]5)C=C4)C=C3)cc1 (stereo unspecified),emission maximum,in ClCCl,653 nm
CCCCCCCCCCCCCCCCn1c(-c2cc(-c3nc4ccc(C)cc4n3CCCCCCCCCCCCCCCC)cc(-c3nc4ccc(C)cc4n3CCCCCCCCCCCCCCCC)c2)nc2ccc(C)cc21,emission maximum,in C1CCOC1,366.9 nm
COc1ccc2nc(-c3ccccc3)c(=O)oc2c1,emission maximum,in c1ccccc1,448 nm
CCCCC(CC)CN1C(=O)c2cc(Oc3ccc(C(C)(C)C)cc3)c3c4c(Cl)cc5c6c(cc(Cl)c(c7c(Oc8ccc(C(C)(C)C)cc8)cc(c2c37)C1=O)c64)C(=O)N(c1c(C(C)C)cccc1C(C)C)C5=O (stereo unspecified),emission maximum,in Cc1ccccc1,606 nm
COCCOCCOCN1C(=O)c2ccc3c(-c4ccccc4)c4c5ccc6c7c(ccc(c(-c8ccccc8)c4c4ccc(c2c34)C1=O)c75)C(=O)N(COCCOCCOC)C6=O,emission maximum,in ClCCl,695 nm
Cc1ccc(-c2cc(-c3ccc(N(C)C)cc3)c3c(N)nc(N4CCCC4)c(C#N)c3n2)cc1,emission maximum,in CC#N,514 nm
same,emission maximum,in CC(C)=O,511 nm
same,emission maximum,in CC(C)O,506 nm
same,emission maximum,in CO,517 nm
same,emission maximum,in ClC(Cl)Cl,496 nm
same,emission maximum,in ClCCl,503 nm
same,emission maximum,in c1ccccc1,500 nm
COc1cc(OC)c2cc(-c3ccccc3CC#N)c(=O)oc2c1,emission maximum,in ClC(Cl)Cl,422 nm
c1ccc(-c2nc(-c3ccc(-c4ccc(-c5ccc(-c6nc(-c7ccccc7)c(-c7ccccc7)o6)cc5)cc4)cc3)oc2-c2ccccc2)cc1,emission maximum,in C1COCCO1,426 nm
c1ccc(-c2c3ccc(=[N+]4CCCCC4)cc-3oc3cc(N4CCCCC4)ccc23)cc1,emission maximum,in CCO,588 nm
same,emission maximum,in ClCCl,585 nm
CCCCCCOc1ccc(N(c2ccc(OCCCCCC)cc2)c2ccc(-c3sc(-c4ccc(N(c5ccc(OCCCCCC)cc5)c5ccc(OCCCCCC)cc5)cc4)c4nc(CC)c(CC)nc34)cc2)cc1,emission maximum,in ClCCl,725 nm
c1ccc(N(c2ccccc2)c2ccc(-c3cnc(-c4ccc(N(c5ccccc5)c5ccccc5)cc4)s3)cc2)cc1,emission maximum,in CO,488 nm
O=c1ccc2ccc(C#Cc3ccccc3)cc2o1,emission maximum,in CC#N,364 nm
CCc1ccc(-c2nc(-c3ccc(-n4c5ccccc5c5ccccc54)cc3)cc(-c3ccc(-n4c5ccccc5c5ccccc54)cc3)n2)cc1,emission maximum,in C1CCOC1,436 nm
same,emission maximum,in CN(C)C=O,482 nm
same,emission maximum,in Cc1ccccc1,402 nm
same,emission maximum,in ClC(Cl)Cl,435 nm
C1=C(c2ccccc2)C(c2ccccc2)=CC1c1ccccc1,emission maximum,in C1CCOC1,345 nm
CCCCC(CC)Cn1c2cc(C#N)ccc2c2ccc(C#Cc3ccc4ccc5c(C#Cc6ccc7c8ccc(C#N)cc8n(CC(CC)CCCC)c7c6)ccc6ccc3c4c65)cc21 (stereo unspecified),emission maximum,in ClCCl,400 nm
COc1ccc(C2=CC3=C(c4c(C)cc(C)cc4C)c4cc(-c5ccc(OC)cc5)c(-c5ccc(OC)cc5)n4[B-](F)(F)[N+]3=C2c2ccc(OC)cc2)cc1,emission maximum,in C1CCCCC1,666 nm
same,emission maximum,in C1CCOC1,674 nm
same,emission maximum,in CC#N,673 nm
same,emission maximum,in Cc1ccccc1,677 nm
same,emission maximum,in ClCCl,672 nm
CC(C)(C)c1ccc2c(c1)c1cc(C(C)(C)C)ccc1n2-c1ccc(C#Cc2ccc(C#Cc3ccc(C=C(C#N)C#N)cc3)cc2)cc1,emission maximum,in ClCCl,474 nm
Cc1csc(C)c1C1=C(c2c(C)sc(-c3ccc(-c4nc(-c5ccccc5)c(-c5ccccc5)[nH]4)cc3)c2C)C(F)(F)C(F)(F)C1(F)F,emission maximum,in C1CCOC1,410 nm
CCOC(=O)c1cc(C(=O)OCC)c2ccc(O)cc2n1,emission maximum,in CCO,474 nm
CCCCCCc1sc(CCCCCC)c2c3ccsc3c3sccc3c12,emission maximum,in ClC(Cl)Cl,425 nm
N#Cc1ccc(N(c2ccc(C#N)cc2)c2ccc3c4cccc5c(N(c6ccc(C#N)cc6)c6ccc(C#N)cc6)ccc(c6cccc2c63)c54)cc1,emission maximum,in C1CCCCC1,494 nm
same,emission maximum,in C1CCOC1,531 nm
same,emission maximum,in CC#N,535 nm
same,emission maximum,in Cc1ccccc1,513 nm
same,emission maximum,in ClCCl,522 nm
COc1ccc(C#Cc2c3cc4ccccc4cc3c(C#Cc3ccc(OC)cc3)c3cc4ccccc4cc23)cc1,emission maximum,in ClCCl,706 nm
O=C1CC(c2cccc([N+](=O)[O-])c2)c2c(c3ccccc3c3nc4ccccc4nc23)O1 (stereo unspecified),emission maximum,in CCCCCC,417 nm
same,emission maximum,in CCOC(C)=O,429 nm
same,emission maximum,in CN(C)C=O,443 nm
same,emission maximum,in CO,452 nm
same,emission maximum,in CS(C)=O,452 nm
same,emission maximum,in ClC(Cl)Cl,428 nm
N#Cc1c(-n2c3ccc(-c4ccccc4)cc3c3cc(-c4ccccc4)ccc32)c(-n2c3ccccc3c3ccccc32)c(-n2c3ccc(-c4ccccc4)cc3c3cc(-c4ccccc4)ccc32)c(-n2c3ccccc3c3ccccc32)c1-n1c2ccc(-c3ccccc3)cc2c2cc(-c3ccccc3)ccc21,emission maximum,in Cc1ccccc1,492 nm
c1cc2ccc1CCCc1cc3c(cc1CCCc1ccc(c4nsnc14)CCC3)CCC2,emission maximum,in C1CCCCC1,496 nm
same,emission maximum,in CC#N,534 nm
same,emission maximum,in ClC(Cl)Cl,531 nm
O=P(c1ccccc1)(c1ccccc1)c1cccc(-c2nc3ccccc3n2-c2cccc(P(=O)(c3ccccc3)c3ccccc3)c2)c1,emission maximum,in ClCCl,376 nm
CN1CCCc2cc(C3=Cc4cccc[n+]4[B-](F)(F)O3)ccc21,emission maximum,in ClC(Cl)Cl,508 nm
Cc1ccc(-c2ccc3ccc4cc(C(C)(C)C)cc5ccc2c3c45)cc1,emission maximum,in C1CCOC1,384 nm
same,emission maximum,in ClCCl,384 nm
CCCCCCCCCC[n+]1cc2ccc3c[n+](CCCCCCCCCC)cc4ccc(c1)c2c34,emission maximum,in CC#N,424 nm
CCCCCCCCCCCCOc1cc2c3cc(OCCCCCCCCCCCC)c(OCCCCCCCCCCCC)cc3c3c(cc(OCCCCCCCCCCCC)c4nc5cc(C#Cc6ccc(OCCCCCCCC)cc6)c(C#Cc6ccc(OCCCCCCCC)cc6)cc5nc43)c2cc1OCCCCCCCCCCCC,emission maximum,in ClC(Cl)Cl,657 nm
CCCCCCCCCCn1c(-c2cc(-c3nc4ccc(C)cc4n3CCCCCCCCCC)cc(-c3nc4ccc(C)cc4n3CCCCCCCCCC)c2)nc2ccc(C)cc21,emission maximum,in C1CCOC1,379.1 nm
Cc1c2c(c(C)c3ccccc13)-c1c-2ccc2nc3ccccc3nc12,emission maximum,in ClC(Cl)Cl,648 nm
N#Cc1cccc(-c2cccc(-c3nc(-c4cccc(-c5cccc(C#N)c5)c4)nc(-c4cccc(-c5cccc(C#N)c5)c4)n3)c2)c1,emission maximum,in ClCCl,420 nm
CNc1ncc2nc(C(=O)OC)n(Cc3ccccc3)c2n1,emission maximum,in C1COCCO1,405 nm
same,emission maximum,in CC#N,413 nm
same,emission maximum,in CO,429 nm
same,emission maximum,in ClCCl,403 nm
c1ccc(-c2cn3ccc[n+]3[n-]2)cc1,emission maximum,in ClCCl,419 nm
COC1(OC)C2(Cl)c3nc4cc(-c5cccs5)ccc4nc3C1(Cl)C1C[C@H]3[C@@H](CC12)C1(Cl)c2nc4ccc(-c5cccs5)cc4nc2C3(Cl)C1(OC)OC (stereo partly specified),emission maximum,in CC#N,461 nm
same,emission maximum,in CCCCCC,412 nm
same,emission maximum,in CCOC(C)=O,439 nm
same,emission maximum,in CO,491 nm
same,emission maximum,in Cc1ccccc1,427 nm
same,emission maximum,in ClC(Cl)Cl,441 nm
same,emission maximum,in ClCCl,445 nm
Cc1cc(C)n2c1C=C1c3ccccc3C(c3cccn3C)=[N+]1[B-]2(F)F,emission maximum,in C1CCOC1,608 nm
same,emission maximum,in CC#N,606 nm
same,emission maximum,in CCCCCC,605 nm
same,emission maximum,in CO,605 nm
same,emission maximum,in Cc1ccccc1,613 nm
same,emission maximum,in ClCCl,611 nm
Fc1c(F)c(F)c([B-]2(c3c(F)c(F)c(F)c(F)c3F)Oc3c(ccc4c5c(ccc34)C=[N+](c3ccccc3)[B-](c3c(F)c(F)c(F)c(F)c3F)(c3c(F)c(F)c(F)c(F)c3F)O5)C=[N+]2c2ccccc2)c(F)c1F,emission maximum,in C1CCOC1,578 nm
same,emission maximum,in CC#N,577 nm
same,emission maximum,in CC(C)=O,578 nm
same,emission maximum,in Cc1ccccc1,580 nm
same,emission maximum,in ClCCl,580 nm
Cc1nnc(-c2ccc(-n3c4ccccc4c4ccccc43)cc2)o1,emission maximum,in CCO,440 nm
same,emission maximum,in Cc1ccccc1,372 nm
Cc1cc2c(cc1[N+](=O)[O-])NC(=O)CC(=O)N2,emission maximum,in CS(C)=O,350 nm
C=Cc1ccc(-c2ccc(-c3nnc(-c4ccc(-c5nnc(-c6ccc(-c7ccc(C=C)cc7)s6)o5)cc4)o3)s2)cc1,emission maximum,in C1COCCO1,397 nm
same,emission maximum,in CC#N,400 nm
same,emission maximum,in CC(=O)N(C)C,407 nm
same,emission maximum,in CCCCCCCCCCO,399 nm
same,emission maximum,in CCCCCCCCO,400 nm
same,emission maximum,in CCCCCCO,399 nm
same,emission maximum,in CCCCO,400 nm
same,emission maximum,in CCO,400 nm
same,emission maximum,in CS(C)=O,423 nm
same,emission maximum,in Cc1ccccc1,399 nm
same,emission maximum,in ClC(Cl)Cl,398 nm
